Experiments:
Coagulation factor XI = Coagulation factor XI (Homo sapiens, UniProt P03951); assay: Factor XIa Assay
Description: (§1) The effectiveness of a compound of the present invention as an inhibitor of Coagulation factor XIa can be determined using a relevant purified serine protease, and an appropriate synthetic substrate. The rate of hydrolysis of the chromogenic or fluorogenic substrate by the relevant serine protease was measured both in the absence and presence of compounds of the present invention. Assays were conducted at rt or at 37° C. […] A decrease in the rate of fluorescence change in the presence of inhibitor is indicative of enzyme inhibition. Such methods are known to one skilled in the art. The results of this assay are expressed as the half-maximal inhibitory concentrations (IC50), or the inhibitory constant, Ki.

Plasma kallikrein = Plasma kallikrein (Homo sapiens, UniProt P03952); assay: Plasma Kallikrein Assay
Description: as §1, with “plasma kallikrein” for “Coagulation factor XIa”

Chain of Coagulation factor XI (P03951 19-387 limits assumed): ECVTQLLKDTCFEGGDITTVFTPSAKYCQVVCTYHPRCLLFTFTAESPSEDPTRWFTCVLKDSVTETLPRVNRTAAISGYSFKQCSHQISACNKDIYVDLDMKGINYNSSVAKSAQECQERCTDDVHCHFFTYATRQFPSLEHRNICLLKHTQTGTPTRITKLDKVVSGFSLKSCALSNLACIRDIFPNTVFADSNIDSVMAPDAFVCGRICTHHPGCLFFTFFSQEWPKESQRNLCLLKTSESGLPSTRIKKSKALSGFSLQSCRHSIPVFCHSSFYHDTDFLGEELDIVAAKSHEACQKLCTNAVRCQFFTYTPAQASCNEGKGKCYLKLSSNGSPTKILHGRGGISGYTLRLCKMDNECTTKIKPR
Chain of Coagulation factor XI (P03951 388-625 limits assumed): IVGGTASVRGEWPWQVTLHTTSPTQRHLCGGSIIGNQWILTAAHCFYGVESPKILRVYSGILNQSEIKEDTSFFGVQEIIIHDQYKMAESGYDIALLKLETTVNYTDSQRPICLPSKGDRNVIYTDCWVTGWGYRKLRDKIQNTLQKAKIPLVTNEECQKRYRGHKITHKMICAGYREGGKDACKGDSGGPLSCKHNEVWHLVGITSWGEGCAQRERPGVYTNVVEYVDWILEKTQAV
Chain of Plasma kallikrein (P03952 20-390 limits assumed): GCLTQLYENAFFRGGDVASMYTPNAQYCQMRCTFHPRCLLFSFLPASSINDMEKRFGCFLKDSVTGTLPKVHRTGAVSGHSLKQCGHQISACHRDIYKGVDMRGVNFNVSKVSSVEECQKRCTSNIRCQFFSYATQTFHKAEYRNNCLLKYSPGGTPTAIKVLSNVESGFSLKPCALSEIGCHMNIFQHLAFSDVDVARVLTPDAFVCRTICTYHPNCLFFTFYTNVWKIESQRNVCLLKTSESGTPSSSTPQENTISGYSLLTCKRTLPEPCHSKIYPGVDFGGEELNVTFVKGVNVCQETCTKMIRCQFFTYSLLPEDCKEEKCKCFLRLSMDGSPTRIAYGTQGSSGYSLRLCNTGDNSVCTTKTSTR
Chain of Plasma kallikrein (P03952 391-638 limits assumed): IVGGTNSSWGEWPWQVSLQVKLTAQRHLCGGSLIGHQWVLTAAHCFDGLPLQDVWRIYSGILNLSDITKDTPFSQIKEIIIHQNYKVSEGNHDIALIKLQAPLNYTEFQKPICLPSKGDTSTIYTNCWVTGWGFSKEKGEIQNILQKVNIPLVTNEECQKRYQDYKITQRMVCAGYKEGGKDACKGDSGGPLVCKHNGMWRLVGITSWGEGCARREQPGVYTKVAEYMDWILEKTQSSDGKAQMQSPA

CC1(O)CN(c2ccc(CNC(=O)c3cncc(N4CC[C@]5(C4)OC(=O)Nc4ccc(Cl)c(F)c45)n3)cn2)C1 [US20240190892, Example 35]
IC50 (Coagulation factor XI): ≥ 10 µM | IC50 (Plasma kallikrein): 0.0284 µM

Reference: BindingDB's records for patent US20240190892 (Merck Sharp & Dohme, 2024)
